Measurements as given in PMC4503980 (Scientific Reports, 2015).

Tests used:
Format in all cases: binding
[1] = molecular target: T1, nNOS-PDZ (Homo sapiens, UniProt P29475); test: FP saturation and inhibition assay, Cy5-Nav1.4 probe / nNOS-PDZ; conditions: concentrations reaching 500–1800 μM; Cy5-Nav1.4 50 nM; [nNOS-PDZ] = 20 μM (ZL006) or 10 μM (IC87201)
T1 construct: nNOS-PDZ (12–130, human); made in house; host or cells: E. coli
Description: Fluorescent probes were made by attaching fluorophores (Cy5) to C-terminal 10- or 11-mer (C10 or C11) peptide ligands representing canonical and natural occurring protein partners (Supplementary Table S1). […] (Fig. 2).
(b) Cy5-GluN2B as probe (50 nM), [PDZ2] = 6 μM. (c) Cy5-CRIPT as probe (50 nM), [PDZ3] = 5 μM. […] Error bars indicate SEM based on three individual measurements.
nNOS-PDZ (12–130, human) and α-Syntrophin-PDZ (82–200, human), both comprising an N-terminal His-tag/FXa-site sequence ([…]), were likewise expressed in E. coli and purified by HisTrap chromatography followed by gel-filtration as described in details previously. To make the TAMRA-labelled nNOS-PDZ, mutant nNOS-PDZ (V36C) protein was generated by standard site-directed mutagenesis and characterized as described previously. Here, dithiothreitol was added to the pooled protein sample after HisTrap purification to a final concentration of 10 mM to eliminate unwanted disulfide bonds, and a final gel-filtration (50 mM NaPi buffer pH 7.5) was performed to remove impurities and salts. Next, purified nNOS-PDZ (V36C) was desalted by dialysis into 50 mM (NH4)2CO3 buffer (SnakeSkin dialysis tubing 3.5 MWCO, Pierce, Rockford, IL, USA) and subsequently lyophilized. nNOS-PDZ (V36C) was redissolved in 500 μL buffer (6 M GnHCl, 200 mM NaPi) and solid TAMRA-maleimide (5-tetramethylrhodamine-C2-maleimide; Anaspec, Fremont, CA, USA) was added in excess (cf. ESI-LC-MS). The coupling reaction was incubated at room temperature for 16 hours and TAMRA-labelled nNOS-PDZ was purified by preparative HPLC, and refolded in assay buffer. Functional validation was performed by FP[19], and all final proteins were characterized for purity and identity by SDS-PAGE and ESI-LC-MS.
Incubation time was 10–15 minutes (room temperature), and the assay was performed in a 1 × TBS buffer (150 mM NaCl, 10 mM Tris, pH 7.4) using black flat-bottom 384-well plates (Corning Life Sciences, NY) and a Safire2 plate-reader (Tecan, Männedorf, Switzerland). G-factor was adjusted so that probe alone (i.e. without protein interacting-partner) would give an FP value of 20 mP. This background value was subsequently subtracted from the raw data before plotting and analyzing the data. TAMRA- and Cy5-probes were measured at excitation/emission values of 530/585 nm (bandwidth = 20 nm) and 635/670 nm (bandwidth = 15 nm), respectively. […]
FP values were fitted to the general equation: Y = Bottom + (Top–Bottom)/[1 + (10^(X-logIC50)*HillSlope)], where X is the logarithmic value of peptide/compound concentration, and Y is the experimental FP values. Competitive inhibition constants, Ki values, were calculated from the IC50 values to quantify affinities between test substance and protein[42]. […]

[2] = molecular target: T2, α1-Syntrophin-PDZ/nNOS-PDZ interaction (Homo sapiens, UniProt P29475); test: 'indirect' FP assay, Cy5-Sapk3 / α-Syntrophin-PDZ / nNOS-PDZ; conditions: up to 500–600 μM; Cy5-Sapk3 5 nM / α-Syntrophin-PDZ 14 μM / nNOS-PDZ 10 μM
T2 construct: nNOS-PDZ (12–130, human); α-Syntrophin-PDZ (82–200, human); made in house; host or cells: E. coli
Excerpt: First we tested a series of 23 fluorescent-labelled C-terminal peptide ligands (Supplementary Table S1) derived from PDZ-interacting proteins in order to find a probe with good activity towards the PSD-95 PDZ domains and no or little activity against nNOS-PDZ (Supplementary Fig. S1). The Cnskr2 probe fulfilled these selectivity criteria and was used to generate saturation curves with PDZ2 and PDZ1-2 of PSD-95 (Fig. 4a). […] Next, fixed concentrations of TAMRA-Cnskr2, PSD-95-PDZ2/1-2, and nNOS-PDZ were applied, corresponding to the conditions at IC50 of the nNOS-PDZ inhibition curve (Fig. 4b) where sensitivity of the assay is greatest. […] Here, we used the Sapk3-peptide as it has the desired high affinity to α1-Syntrophin-PDZ and low affinity to nNOS-PDZ (Supplementary Fig. S1).
The minor increases in mP at high concentrations, 260-2900 μM, were due to fluorescence artefacts.
Similar, this assay was established with Syntrophin-PDZ and Sapk3 as probe (Fig. 4d).
In all cases, the DMSO effect on the assay was tested and found negligible.

[3] = molecular target: T3, TAMRA-nNOS/PSD-95-PDZ2 interaction (Homo sapiens, UniProt P29475+P78352, V36C); test: 'direct' FP assay, TAMRA-nNOS / PDZ2 (saturation and inhibition)
T3 construct: nNOS-PDZ (12–130, human); PDZ2 (155-249); made in house; host or cells: E. coli
Description: The assay was established by creating a fluorescent version of nNOS-PDZ by TAMRA-labelling nNOS-PDZ via an introduced cysteine residue (V36C). […] However, up to 7.3 μM no inhibition of TAMRA-nNOS/PSD-95-PDZ interactions could be measured (data not shown).
(a) Saturation curves between TAMRA-nNOS (5 nM) and PDZ1, PDZ2, and PDZ1-2 of PSD-95. […] Error bars indicate SEM based on three individual measurements.
nNOS-PDZ (12–130, human) and α-Syntrophin-PDZ (82–200, human), both comprising an N-terminal His-tag/FXa-site sequence ([…]), were likewise expressed in E. coli and purified by HisTrap chromatography followed by gel-filtration as described in details previously. To make the TAMRA-labelled nNOS-PDZ, mutant nNOS-PDZ (V36C) protein was generated by standard site-directed mutagenesis and characterized as described previously. […]
Incubation time was 10–15 minutes (room temperature), and the assay was performed in a 1 × TBS buffer (150 mM NaCl, 10 mM Tris, pH 7.4) using black flat-bottom 384-well plates (Corning Life Sciences, NY) and a Safire2 plate-reader (Tecan, Männedorf, Switzerland). […] TAMRA- and Cy5-probes were measured at excitation/emission values of 530/585 nm (bandwidth = 20 nm) and 635/670 nm (bandwidth = 15 nm), respectively. […]

T2 sequence (P29475 12-130): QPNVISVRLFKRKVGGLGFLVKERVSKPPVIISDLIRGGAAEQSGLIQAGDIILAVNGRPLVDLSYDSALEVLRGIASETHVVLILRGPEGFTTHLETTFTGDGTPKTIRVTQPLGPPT
T1 sequence (P29475 12-130): as above
T3 sequence (P29475 12-130 V36C): as the sequence (P29475 12-130) above, with V25C counted along it
T3 sequence (P78352 155-249): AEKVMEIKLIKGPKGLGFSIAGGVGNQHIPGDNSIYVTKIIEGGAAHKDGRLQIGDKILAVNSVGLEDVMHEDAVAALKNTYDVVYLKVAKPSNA

| SMILES | inhibition of probe-PDZ interaction (nNOS-PDZ) [1] | activity in indirect FP assay (α1-Syntrophin-PDZ/nNOS-PDZ) [2] | inhibition of TAMRA-nNOS/PDZ2 interaction ([3]; tested at up to 1200 μM, TAMRA-nNOS 5 nM, PDZ2 2.5 μM) | inhibition of TAMRA-nNOS/PDZ2 interaction ([3]; up to 7.3 μM (fluorescence artefacts above), data not shown) |
| --- | --- | --- | --- | --- |
| O=C(O)c1ccc(NCc2cc(Cl)cc(Cl)c2O)cc1O [ZL006, 4-((3,5-Dichloro-2-hydroxybenzyl)amino)-2-hydroxybenzoic acid] | did not inhibit | no activity | no activity |  |
| Oc1c(Cl)cc(Cl)cc1CNc1ccc2[nH]nnc2c1 [IC87201, 2-((1H-Benzo[d][1–3]triazol-5-ylamino)methyl)-4-6-dichlorophenol] | did not inhibit | no activity |  | no inhibition |
